This is an account of results in patent US20250041272A1, “COMPOSITIONS AND METHODS FOR TREATING CANCER VIA PTP1B INHIBITION” (priority 2021, published 2025).

In assay [1] the test system is macrophage M1 associated gene expression. The experiment in a line: Cisplatin treated transwell co-culture of macrophages and B16F10 cells, qRT-PCR. The format is cell-based, mouse. The method, then:
Peritoneal macrophage isolation and culture. Peritoneal macrophages were done as described previously(65) from 8-week-old C57BL/6J mice (randomized, both male and female). PBS (Gibco) was injected in the mural peritoneal cavity to release the macrophages. After recovering, cells were centrifuged at 1200 rpm for 5 minutes, resuspended in DMEM high glucose, 10% FBS, 1% penicillin-streptomycin (Gibco) and plated. 2 hours after the last step, cells were washed with PBS and maintained in DMEM/F12 supplemented with 10% FBS, 1% penicillin-streptomycin and 20 ng/ml of M-CSF (Prospec) for 2 days. Macrophages were treated for 24 hours with 50 ng/ml LPS (Sigma Millipore), 100 ng/ml IFNγ (BioLegend), 300 ng/ml PAM3CSK4 (InvivoGen), 107 cells/ml heat killed Listeria Monocytogenes (HKLM) (InvivoGen), 100 ng/ml Flagellin Salmonella typhimurium standard (InvivoGen), 10 ng/ml FSL1 (InvivoGen), 2.5 ug/ml ssRNA40 (InvivoGen), 2.5 ug/ml CL 075 (Tocris), 5 μM ODN1826, 50 μM Fludarabine (SelleckChem), 50 nM Momelotinib (SelleckChem), 5 μM BVT948 (Sigma Millipore), 200 μM PTP1b inhibitor III (Santa Cruz Biotechnology Inc.), 5 μM NSC87877 (Santa Cruz Biotechnology Inc.), 50 μM PTP1b inhibitor (Cayman), 1 mM PTP Inhibitor IV (Santa Cruz Biotechnology Inc.), 1 μM TSC401, 300 nM UNC2371 (SelleckChem), 300 nM BMS777607 (SelleckChem), 300 nM LDC1267 (SelleckChem) 1.5 μg/ml recombinant Pros1 (R&D systems), 200 ng/ml recombinant Gas6 (R&D systems) or 10-500 μM Cisplatin (Tocris). All components were added as described in the text. Cell culture. B16F10 (CRL-6475, ATCC), Lewis lung carcinoma (LLC) (CRL-1642, ATCC), KPC2713 (Yuliya Pylayeva-Gupta laboratory, UNC) and MDA-MB-231 (HTB-26, ATCC) were cultured in DMEM high glucose supplemented with 10% FBS, 1% penicillin-streptomycin (Gibco). GEMM6 (Dr. Alisha Holtzhausen, UNC), KPPC4662 (Dr. Yuliya Pylayeva-Gupta laboratory, UNC), KPPC4548 (Yuliya Pylayeva-Gupta laboratory, UNC) and E0771 (CRL-3461, ATCC) were maintained in RPMI 1640 supplemented with […], 1% penicillin/streptomycin (Gibco) while PyMT cells were cultured in Ham's F-12K with 10% FBS, 1% penicillin-streptomycin (Gibco). Transwell assays were performed in 0.4 μm polyester membrane insert culture plates (Corning). 500,000 cells of each line were plated per well in DMEM/F12 supplemented with 10% FBS, 1% penicillin-streptomycin and 20 ng/ml of M-CSF for culture with mouse macrophages. SC cells (CRL-9855, ATCC) were cultured in IMDM with 10% FBS and 1% penicillin-streptomycin (Gibco). In transwell experiments with the SC cell line, cancer cells were also resuspended in IMDM media.
qRT-PCR. RNA was isolated using the RNeasy Plus Mini Kit (Quiagen) and cDNA was prepared using the Reverse Transcription System (Promega) with one-hour reverse transcription process. qRT-PCR was done using the PowerUp™ SYBR™ Green Master Mix (Applied Biosystems) on a QuantStudio Pro Real-time PCR system (Applied Biosystems) with a 95° C. pretreatment of 10 min, 50 cycles of 95° C., 10 sec and 60° C., 1 min and melt curve at the end. Analysis was performed with the 2^−ΔΔCT method(136).
(Quantitative PCR measures a nucleic acid by following its amplification.)

Assay [2] concerns the target T1, ternary complex of PTP1b with Mer and Stat1 (Mus musculus, UniProt P35821).
T1 construct: endogenous in cells; host or cells: Primary peritoneal macrophages from C57BL/6J mice, stimulated with IFNγ and LPS and co-cultured with B16F10 melanoma cells
T1 sequence (P35821 1-432): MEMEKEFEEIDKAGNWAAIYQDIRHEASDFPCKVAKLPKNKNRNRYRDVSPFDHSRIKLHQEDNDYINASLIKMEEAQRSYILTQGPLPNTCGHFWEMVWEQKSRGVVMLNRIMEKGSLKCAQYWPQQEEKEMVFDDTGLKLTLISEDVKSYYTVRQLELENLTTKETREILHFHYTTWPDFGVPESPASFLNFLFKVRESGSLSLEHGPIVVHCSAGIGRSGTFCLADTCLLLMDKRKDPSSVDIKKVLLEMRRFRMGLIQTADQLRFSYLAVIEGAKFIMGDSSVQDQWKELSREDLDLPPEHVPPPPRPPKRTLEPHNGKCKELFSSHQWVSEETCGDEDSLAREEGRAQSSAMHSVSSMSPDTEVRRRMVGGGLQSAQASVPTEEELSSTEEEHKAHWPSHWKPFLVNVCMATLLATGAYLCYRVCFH
The experiment in a line: Co-immunoprecipitation of PTP1b or Stat1 from macrophages co-cultured with B16F10 cells. The format is cell-based. The protocol: Coimmunoprecipitation and Western blot. Coimmunoprecipitation was performed using […] A/G agarose beads (Santa Cruz Biotechnology Inc.) and antibodies for PTP1b (Abcam) or STAT1 (Cell signaling). Samples were incubated for 3 days at 4° C. under rotation and washed three times with RIPA buffer before loading them in 10% Mini-PROTEAN TGX stain-free gels (Biorad). After running the electrophoresis in the Mini-PROTEAN Tetra System (Bio-Rad) proteins were transferred to a 0.2-μm nitrocellulose Trans-Blot Mini Turbo Transfer Pack (Bio-Rad) using a Trans-Blot Turbo Transfer System (Bio-Rad). Membranes were blocked with 5% BSA (Fisher scientific) for 1 hour and blotted with antibodies against MyD88 (Cell Signaling), total STAT1 (Cell Signaling), tyrosine 701 phosphorylated STAT1 (Cell signaling), serine 727 phosphorylated STAT1 (Cell signaling), PTP1 b (Abcam) and Mer (Thermo Fisher scientific). Detection was performed with the ECL HPR-linked anti-rabbit antibody (Cell signaling) and the Clarity-Max Western ECL substrate (Bio-Rad). Blots were imaging with ChemiDoc MP Imaging System (Bio-Rad) and quantitated using ImageJ software (NIH).

[3] abbreviates: co-immunoprecipitation of Stat1, 24 hours.

Consider BVT948, for which the “macrophage pro-inflammatory gene expression, PTP1b inhibition in combination with Cisplatin” value in assay [1] (BVT948 with Cisplatin 50 μM to 500 μM, wildtype macrophages with B16F10 cells) is given as “able to restore macrophage pro-inflammatory gene expression, in a dose dependent manner”. Also, the “M1 gene expression in MyD88 knockout macrophages” value in assay [1] (increasing Cisplatin, with or without BVT948) is listed as “Neither increasing concentrations of Cisplatin, nor PTP1 b inhibition, were able to restore M1 gene expression”. The “association of PTP1b with Mer and Stat1” value in assay [2] (co-immunoprecipitation of PTP1b, in the presence of B16F10 cells) was “reduced the association”. In assay [2] (setting [3]), the “Stat1 S727 phosphorylation” value is “restoration of Stat1 S727 phosphorylation” and the ternary complex formation result is “reduced ternary complex formation”.
